{"source": "paper PMC4947684", "about": "“In Vivo and In Vitro Genotoxic and Epigenetic Effects of Two Types of Cola Beverages and Caffeine: A Multiassay Approach” (BioMed Research International, 2016)", "key": {"D. melanogaster larvae [1]": {"tested_on": "D. melanogaster larvae", "description": "(§2) Negative (H2O) and positive (0.15 M H2O2) toxicant concurrent controls were also assayed. Test groups consisted of larvae fed with Drosophila Instant Medium (Formula 4–24, Carolina Biological Supply, Burlington, NC) supplemented with the beverage concentrations tested. Emerging adults of all groups were counted and toxicity was determined as the percentage of hatched individuals in each treatment compared with the negative control. Antitoxicity was assessed using the same procedure and experimental concentrations as in toxicity assays, but in combined treatments with 0.15 M H2O2 and comparing the percentage of emerging adults with the positive toxicant control [34]. […] Negative control values were considered as those expected in Chi-square formula used in toxicity assay and positive control values in antitoxicity assays [35]. The same concentrations of toxicity and antitoxicity assays within the same substance were also compared."}, "HL-60 cells [2]": {"tested_on": "HL-60 cells", "experiment": "Cytotoxicity assay (trypan blue exclusion)", "assay_type": "cell-based, human", "details": "Homo sapiens; HL-60, highest tested concentration 20.4 mM; read-out: Inhibition of cell growth", "method": "(§1) Promyelocytic human leukaemia (HL-60) cells were grown in RPMI-1640 medium (Sigma, R5886) supplemented with heat-inactivated foetal bovine serum (Linus, S01805), L-glutamine 200 mM (Sigma, G7513), and 1x antibiotic-antimycotic solution (Sigma, A5955). Cells were incubated at 37°C in a humidified atmosphere of 5% CO2. Cultures were plated at 2.5 × 10^4 cells/mL density in 10 mL culture bottles and passed every 2 days. The effect of the assayed compounds on cell viability was determined by the trypan blue exclusion test according to our standard procedures. […] After culture, cells were stained with a 1 : 1 volume ratio of trypan blue dye (Sigma, T8154) and counted in a Neubauer chamber at 100x magnification. The survival percentage of each treatment compared with the control was recorded in three independent replicates."}, "[3]": {"experiment": "Cytotoxicity assay (trypan blue exclusion)", "assay_type": "cell-based, human", "details": "human, HL-60 cells; HL-60, 72 h; read-out: IC50 (cytotoxicity), not reached at highest tested concentration", "method": "as §1"}, "HL-60 cells [4]": {"tested_on": "HL-60 cells", "experiment": "DNA fragmentation status (internucleosomal ladder)", "assay_type": "cell-based, human", "details": "HL-60, 5 h, any CAF treatment", "method": "The ability of our compounds to induce DNA fragmentation was determined as described by Anter et al.. […] After treatment, genomic DNA was extracted using a commercial kit (Blood Genomic DNA Extraction Mini Spin Kit, […] Biotech, Cordoba, Spain). Subsequently, DNA was incubated overnight with RNase at 37°C and quantified in a spectrophotometer (Nanodrop® ND-1000). Finally, 1200 ng DNA was electrophoresed in a 2% agarose gel for 120 min at 50 V, stained with ethidium bromide, and visualised under UV light. The apoptosis process is recognised by the appearance of internucleosomal DNA fragments that are multiple of 200 base pairs."}, "LINE-1": {"tested_on": "LINE-1", "experiment": "Methylation status of HL-60 cells (qMSP)", "assay_type": "cell-based, human", "details": "HL-60, 5 h, 0.51 mM", "method": "Then, DNA was extracted similarly to previously described DNA fragmentation assay. After that, the DNA was converted with bisulphite (EZ DNA Methylation-Gold™ Kit). Bisulphite-modified DNA was used for fluorescence-based real-time quantitative Methylation-Specific PCR (qMSP) using 5 μM of each forward and reverse primer (Isogen Life Science BV), 2 μL of iTaq™ Universal SYBR® Green Supermix (Bio-Rad, it contains antibody-mediated hot-start iTaq DNA polymerase, dNTPs, MgCl2, SYBR Green I Dye, enhancers, stabilizers, and a blend of passive reference dyes including ROX and fluorescein) and 25 ng of bisulphite converted genomic DNA. PCR conditions included initial denaturalisation at 95°C for 3 minutes and amplification which consisted of 45 cycles at 95°C for 10 seconds, 60°C for 15 seconds, and 72°C for 15 seconds, taking picture at the end of each elongation cycle. After that, melting curve was determined increasing 0.5°C each […] from 60°C to 95°C and taking pictures. QMSP was carried out in 48-well plates in MiniOpticon Real-Time PCR System (MJ Mini Personal Thermal Cycler, Bio-Rad) and were analysed by Bio-Rad CFX Manager 3.1 software. […] Alu-C4 and the target repetitive elements Alu M1, LINE-1, and Sat-α were obtained from Isogen Life Science and their sequences are shown in Table 1. Each sample was analysed in triplicate. The results of each CT were obtained from each qMSP. […]"}, "[5]": {"tested_on": "human breast cancer cells", "parameters": "method as in PMID 25691730", "details": "cited from earlier work"}, "Drosophila melanogaster [6]": {"tested_on": "Drosophila melanogaster", "experiment": "Chronic treatments: lifespan and healthspan assays", "assay_type": "in vivo", "details": "for Healthspan difference (%) / Mean lifespan difference (%): versus concurrent water control", "method": "We also tested the same compounds and concentrations as in the toxicity/antitoxicity experiments. Lifespan assays were carried out at 25°C according to the procedure described by Fernandez-Bedmar et al.. Briefly, synchronised 72 ± 12-hour-old transheterozygous larvae were washed in distilled water, collected, and transferred in groups of 100 individuals into test vials containing 0.85 g Drosophila Instant Medium and 4 mL of the different concentrations of the compounds to be assayed. Emerged adults from pupae were collected under CO2 anaesthesia and placed in groups of 25 individuals of the same sex into sterile vials containing 0.21 g Drosophila Instant Medium and 1 mL of different concentrations of the compounds to be tested. Flies were chronically treated during all their life. The number of survivors was determined twice a week."}, "Drosophila melanogaster [7]": {"tested_on": "Drosophila melanogaster", "experiment": "Antigenotoxicity, Drosophila wing spot test (SMART), combined with H2O2", "details": "combined treatment with […] H2O2, mwh/flr3, 0.51 mM", "description": "(§3) Genotoxicity assays were carried out following the wing spot test standard procedure [20]. Briefly, transheterozygous larvae for mwh and flr ^3 genes were obtained by crossing four-day-old virgin flr ^3 females with mwh males in a 2 : 1 ratio. Four days after fertilization, females were allowed to lay eggs in fresh yeast medium (25 g yeast and 4 mL sterile distilled water) for 8 h in order to obtain synchronised larvae. After 72 h, larvae were collected, washed with distilled water, and clustered in groups of 100 individuals. […] Adult flies were collected and stored in 70% ethanol until the wings were removed and mounted on slides using Faure's solution. Mutant spots were assessed in both dorsal and ventral surfaces of the wings in a bright light microscope at 400x magnification. The frequencies of each type of mutant clone per wing (single, large, or twin spot) were compared to the concurrent negative control and analysed applying the binomial Kastenbaum and Bowman Test [36]. Antigenotoxicity tests were performed following the method described by Anter et al. [37]. […] Single and twin spots per wing were also recorded and compared with the concurrent positive control as described before. The recombination percentage was calculated following Valadares et al. [38] procedure and the inhibition percentages (IP) for the combined treatments were calculated from the control-corrected frequencies of clone formation per 10^5 cells, according to Abraham [39]: IP = [(genotoxin alone − combined treatment)/genotoxin alone] × 100."}, "D. melanogaster larvae [8]": {"tested_on": "D. melanogaster larvae", "experiment": "Antitoxicity assay (combined treatment with […] H2O2)", "description": "as §2"}, "HL-60": {"tested_on": "HL-60", "parameters": "method as in PMID 1311329", "details": "at 5 mM; cited from earlier work"}, "Drosophila melanogaster [9]": {"tested_on": "Drosophila melanogaster", "experiment": "Genotoxicity, Drosophila wing spot test (SMART)", "details": "[…] H2O2 alone", "description": "as §3"}, "[10]": {"details": "mwh/TM3 balancers-heterozygous wings"}}, "note": "Like-named read-outs stand apart in the source and are kept apart here."}
{"compound": "Cn1c(=O)c2c(ncn2C)n(C)c1=O", "note": "[CAF, 1,3,7-trimethylpurine-2,6-dione]", "values": [{"measurement": "Survival (%) simple treatment", "setting": "D. melanogaster larvae [1]; 0.004 mM", "value": 100, "unit": "%"}, {"measurement": "Survival (%) simple treatment", "setting": "D. melanogaster larvae [1]; 0.032 mM", "value": 100, "unit": "%"}, {"measurement": "Survival (%) simple treatment", "setting": "D. melanogaster larvae [1]; 0.127 mM", "value": 100, "unit": "%"}, {"measurement": "Survival (%) simple treatment", "setting": "D. melanogaster larvae [1]; 0.51 mM", "value": 100, "unit": "%"}, {"measurement": "inhibition at 20400 µM", "setting": "HL-60 cells [2]", "value": "~40", "unit": "%"}, {"measurement": "IC50 at 72 h", "setting": "[3]", "value": "> 20.4", "unit": "mM"}, {"measurement": "Ladder pattern of fragmented internucleosomal DNA", "setting": "HL-60 cells [4]", "value": "not observed"}, {"measurement": "Methylation status", "setting": "LINE-1", "value": "decrease of methylation status"}, {"measurement": "IC50", "setting": "[5]", "value": "~5", "unit": "mM"}, {"measurement": "Healthspan (80th percentile) (days)", "setting": "Drosophila melanogaster [6]; 0.004 mM, mean ± SE", "value": "47 ± 2.65^∗∗ days"}, {"measurement": "Mean lifespan", "setting": "Drosophila melanogaster [6]; 0.004 mM, mean ± SE", "value": "62.88 ± 1.7", "unit": "days"}, {"measurement": "Healthspan difference (%)", "setting": "Drosophila melanogaster [6]; 0.004 mM", "value": 55.73, "unit": "%"}, {"measurement": "Mean lifespan difference (%)", "setting": "Drosophila melanogaster [6]; 0.004 mM", "value": 6.87, "unit": "%"}, {"measurement": "Mean lifespan (days)", "setting": "Drosophila melanogaster [6]; 0.032 mM, mean ± SE", "value": "68.86 ± 2.38^∗∗ days"}, {"measurement": "Healthspan difference (%)", "setting": "Drosophila melanogaster [6]; 0.032 mM", "value": 40.32, "unit": "%"}, {"measurement": "Mean lifespan difference (%)", "setting": "Drosophila melanogaster [6]; 0.032 mM", "value": 17.02, "unit": "%"}, {"measurement": "Mean lifespan (days)", "setting": "Drosophila melanogaster [6]; 0.127 mM, mean ± SE", "value": "70.91 ± 2.99^∗∗∗ days"}, {"measurement": "Healthspan difference (%)", "setting": "Drosophila melanogaster [6]; 0.127 mM", "value": 22.23, "unit": "%"}, {"measurement": "Mean lifespan difference (%)", "setting": "Drosophila melanogaster [6]; 0.127 mM", "value": 20.52, "unit": "%"}, {"measurement": "Mean lifespan", "setting": "Drosophila melanogaster [6]; 0.51 mM, mean ± SE", "value": "61.14 ± 2.07", "unit": "days"}, {"measurement": "Healthspan difference (%)", "setting": "Drosophila melanogaster [6]; 0.51 mM", "value": 26.41, "unit": "%"}, {"measurement": "Mean lifespan difference (%)", "setting": "Drosophila melanogaster [6]; 0.51 mM", "value": 3.91, "unit": "%"}, {"measurement": "Drosophila lifespan increase, on average", "setting": "Drosophila melanogaster [6]; on average", "value": "more than 15%"}, {"measurement": "Clones per wings: large simple spots (>2 cells) m = 5", "setting": "Drosophila melanogaster [7]", "value": "0.125 (10) clones/wing"}, {"measurement": "Clones per wings: small single spots (1-2 cells) m = 2", "setting": "Drosophila melanogaster [7]", "value": "0.325 (26) clones/wing"}, {"measurement": "Clones per wings: total spots m = 2", "setting": "Drosophila melanogaster [7]", "value": 0.45, "unit": "clones/wing"}, {"measurement": "Clones per wings: twin spots m = 5", "setting": "Drosophila melanogaster [7]", "value": 0, "unit": "clones/wing"}, {"measurement": "Frequency of clone formation per 10^5 cells, control corrected", "setting": "Drosophila melanogaster [7]", "value": 0.766, "unit": "per 10^5 cells"}, {"measurement": "Frequency of clone formation per 10^5 cells, observed", "setting": "Drosophila melanogaster [7]", "value": 1.844, "unit": "per 10^5 cells"}, {"measurement": "Survival (%) combined treatment", "setting": "D. melanogaster larvae [8]; 0.004 mM + […] hydrogen peroxide", "value": "54^Δ %"}, {"measurement": "Survival (%) combined treatment", "setting": "D. melanogaster larvae [8]; 0.032 mM + […] hydrogen peroxide", "value": "51^Δ %"}, {"measurement": "Survival (%) combined treatment", "setting": "D. melanogaster larvae [8]; 0.127 mM + […] hydrogen peroxide", "value": "54.66^Δ %"}, {"measurement": "Survival (%) combined treatment", "setting": "D. melanogaster larvae [8]; 0.51 mM + […] hydrogen peroxide", "value": "51.33^Δ %"}, {"measurement": "Growth inhibition (in words)", "setting": "HL-60", "value": "inhibited HL-60 growth"}]}
{"compound": "OO", "note": "[H2O2, hydrogen peroxide]", "values": [{"measurement": "Clones per wings: large simple spots (>2 cells) m = 5", "setting": "Drosophila melanogaster [9]; [10]", "value": "0.013 (1) clones/wing"}, {"measurement": "Clones per wings: small single spots (1-2 cells) m = 2", "setting": "Drosophila melanogaster [9]; [10]", "value": "0.188 (15) clones/wing"}, {"measurement": "Frequency of clone formation per 10^5 cells, observed", "setting": "Drosophila melanogaster [9]; mwh/TM3 wings", "value": 0.819, "unit": "per 10^5 cells"}, {"measurement": "Clones per wings: large simple spots (>2 cells) m = 5", "setting": "Drosophila melanogaster [9]; mwh/flr3 wings", "value": "0.088 (7) clones/wing"}, {"measurement": "Clones per wings: small single spots (1-2 cells) m = 2", "setting": "Drosophila melanogaster [9]; mwh/flr3 wings", "value": "0.313 (25) clones/wing"}, {"measurement": "Clones per wings: total spots m = 2", "setting": "Drosophila melanogaster [9]; mwh/flr3 wings", "value": 0.438, "unit": "clones/wing"}, {"measurement": "Clones per wings: twin spots m = 5", "setting": "Drosophila melanogaster [9]; mwh/flr3 wings", "value": "0.038 (3) clones/wing"}, {"measurement": "Frequency of clone formation per 10^5 cells, control corrected", "setting": "Drosophila melanogaster [9]; mwh/flr3 wings", "value": 0.717, "unit": "per 10^5 cells"}, {"measurement": "Frequency of clone formation per 10^5 cells, observed", "setting": "Drosophila melanogaster [9]; mwh/flr3 wings", "value": 1.795, "unit": "per 10^5 cells"}, {"measurement": "Statistical diagnosis of total spots", "setting": "Drosophila melanogaster [9]; mwh/flr3 wings, versus negative control", "value": "+"}, {"measurement": "Survival (%) positive toxicant control", "setting": "D. melanogaster larvae [8]; […] H2O2 alone", "value": 46.66, "unit": "%"}]}
